In patent US8900783B2, “Electrophotographic photoreceptor, process cartridge, and image forming apparatus” (Fuji Xerox Co., Ltd., priority 2013, dated 2014) one finds solubility data, which are given here for one molecule.

The nature of this data set: Evaluation on solubility with respect to solvent. The data set is classed as physicochemical. The conditions noted are these: organic solvent or mixture, thermodynamic from solid, stirred for one hour, visually checked. On the procedure: Here, Compound (C) is a specific non-charge transporting compound which is not the specific position isomer mixture.
First, the Exemplary compounds and Compound (C) are respectively dissolved in tetrahydrofuran, and solubility of the solution is evaluated as follows.
1 g of Compound (C) is added to 10 ml of tetrahydrofuran at 20° C., the mixture is stirred for one hour, and solubility thereof is visually checked. A case where Compound (C) is dissolved is evaluated as A, a case where an insoluble part is slightly observed is evaluated as B, and a case where the solution yields white turbidity is evaluated as C.
In addition, solubility thereof when the solvent is changed from tetrahydrofuran to toluene, xylene, dichloroethane, chloroform, and butyl acetate is evaluated.

Like-named read-outs stand apart in the source and are kept apart here.

`C=Cc1ccc(COc2ccc(C(C)(c3ccc(OCc4ccc(C=C)cc4)cc3)c3ccc(OCc4ccc(C=C)cc4)cc3)cc2)cc1` [Compound (C)]: the solubility (as a rule, the concentration that dissolves in the medium under given conditions) at 1 h is below 100 mg/mL (1 g added to 10 ml of butyl acetate at 20° C., read-out: Evaluation on solubility Butyl acetate); above 100 mg/mL (1 g added to 10 ml of chloroform at 20° C., read-out: Evaluation on solubility Chloroform); above 100 mg/mL (1 g added to 10 ml of dichloroethane at 20° C., read-out: Evaluation on solubility Dichloroethane); above 100 mg/mL (1 g added to 10 ml of tetrahydrofuran at 20° C., read-out: Evaluation on solubility Tetrahydrofuran); below 100 mg/mL (1 g added to 10 ml of toluene at 20° C., read-out: Evaluation on solubility Toluene); below 100 mg/mL (1 g added to 10 ml of xylene at 20° C., read-out: Evaluation on solubility Xylene).
